In patent US6624185B2, “Diarylcycloalkyl derivatives, processes for their preparation and their use as pharmaceuticals” (Aventis Pharma Deutschland GmbH, priority 2001, dated 2003):

What follows are compounds tested against T1, human PPARα (Homo sapiens, UniProt Q07869) (assay: PPARα reporter cell line assay (stably transfected HEK cells, luciferase readout, three-day test)). Conditions: agonist activity in stably transfected HEK PPARα reporter cell line, 24 h incubation, luciferase luminescence.
T1 construct: expressed in transfected cells; host or cells: HEK (human embryo kidney) cells, stably transfected
T1 sequence (Q07869 1-468): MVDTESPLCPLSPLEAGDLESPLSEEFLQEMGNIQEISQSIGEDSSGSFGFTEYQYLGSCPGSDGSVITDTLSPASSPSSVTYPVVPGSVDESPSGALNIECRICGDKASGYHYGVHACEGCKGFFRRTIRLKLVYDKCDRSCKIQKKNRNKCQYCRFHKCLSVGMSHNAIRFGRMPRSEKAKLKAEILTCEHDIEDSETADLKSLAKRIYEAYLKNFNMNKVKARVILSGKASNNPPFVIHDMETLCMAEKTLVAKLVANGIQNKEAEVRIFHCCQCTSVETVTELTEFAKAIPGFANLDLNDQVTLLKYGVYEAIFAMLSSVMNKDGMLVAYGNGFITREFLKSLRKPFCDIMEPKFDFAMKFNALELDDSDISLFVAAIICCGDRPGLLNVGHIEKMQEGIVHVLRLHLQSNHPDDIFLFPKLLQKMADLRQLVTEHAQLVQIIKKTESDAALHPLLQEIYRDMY
Assay type: cell-based
Description: To analyze the effectiveness of substances which bind to human PPARα, activating it in agonistic manner, a stable transfected HEK cell line (HEK=human embryo kidney) designated here as “PPARα reporter cell line” is used.
The activity of PPARα agonists is determined in a three-day test, described below:
The PPARα reporter cell line is cultivated up to 80% confluence in DMEM medium (#41965-039, Life Technologies) with the following additives: 10% cs-FCS (fetal calf serum, #SH-30068.03, Hyclone), antibiotics (0.5 mg/ml of zeozin [#R250-01, Invitrogen], 0.5 mg/ml of G418 [#10131-019, Life Technologies], 1% penicillin streptomycin solution [#15140-031, Life Technologies]) and 2 mM of L-glutamine (#25030-032, Life Technologies). Cultivation is carried out in standard cell culture bottles (#33111, Becton Dickinson) in a cell culture incubator at 37° C. and 5% CO2. The 80% confluent cells are washed once with 30 ml of PBS (#141-090- 094, Life Technologies), treated with 2 ml of trypsin solution (#25300-054, Life Technologies) at 37° C. for 2 min, taken up in 5 ml of the medium described above and counted in a cell counter. After dilution to 500,000 cells/ml, in each case 100,000 cells are sown into each well of a 96-well microtiter plate having a clear plastic bottom (#3610, Corning Costar). The plates are incubated in a cell incubator at 37° C. and 5% CO2 for 24 h.
The PPARα agonists to be tested are dissolved in DMSO at a concentration of 10 mM. This stock solution is diluted in Phenol-Red-free DMEM medium (#21063-029, Life Technologies) to which 5% of cs-FCS (#SH-30068.03, Hyclone), 2 mM of L-glutamine (#25030-032, Life Technologies) and the antibiotics described above (zeozin, G418, penicillin and streptomycin) had been added.
Test substances are usually tested at 11 different concentrations (10 μM; 3.3 μM; 1 μM; 0.33 μM; 0,1 μM; 0.033 μM; 0.01 μM; 0.0033 μM; 0.001 μM; 0.00033 μM and 0.0001 μM). […] From each well, the medium of the PPARα reporter cell line sown on day 1 is completely removed by aspiration, and immediately, the test substances diluted in medium are added to the cells. Dilution and addition of the substances can be carried out using a robot (Beckman Biomek 2000). The end volume of the test substances diluted in medium is 100 μl per well of a 96-well plate. The DMSO concentration in the assay is always below 0.1% v/v to prevent cytotoxic effects of the solvent.
The test plates are incubated in an incubator at 37° C. and 5% CO2 for 24 h.
The PPARα receptor cells treated with the test substances are removed from the incubator and frozen at −20° C. for 1 h to improve cell lysis. After the plates have thawed (thawing at room temperature for at least 30 min), 50 μl of buffer 1 (Luc-Screen kit #LS1000, PE Biosystems Tropix) are pipetted into each well and the plates are then transferred into an apparatus for measuring luminescence, fitted with a pipetting unit (Luminoscan Ascent, LabSystems). The luciferase reaction in the measurement apparatus is started by pipetting 50 μl of buffer 2 (Luc-Screen kit #LS1000, PE Biosystems Tropix) into each well of the 96-well plate. Addition of buffer to the individual wells is carried out in defined and identical time intervals following the instructions of the manufacturer (LabSystems). All samples are measured exactly 16 min after addition of buffer 2. Measurement time is 10 sec per sample.
The crude data of the apparatus for measuring luminescence are exported into a Microsoft Excel file. Dose-activity curves and EC50 values are calculated using the program XL.Fit according to the instructions of the manufacturer (IDBS).

| Compound | EC50 |
| --- | --- |
| 2-{3-[2-(4-Fluorophenyl)oxazola4-ylmethoxy]cyclohexyloxy}-6-methylbenzoic Acid [Example I] | 1 nM |
| Cc1cccc(CC[C@@H]2CCC[C@H](OCc3coc(-c4ccc(F)cc4)n3)C2)c1C(=O)O (racemic) [XXVIII, Rac-cis-2-(2-{3-[2-(4-Fluorophenyl)oxazol-4-ylmethoxy]cyclohexyl}ethyl)-6-methylbenzoic Acid] | 14 nM |
| Cc1ccccc1-c1nc(COC2CCCC(OCc3cccc(C)c3C(=O)O)C2)c(C)o1 (centres unmarked) [XLI, 2-{3-[2-(2-Methylphenyl)-5-methyloxazol-4-ylmethoxy]cyclohexyloxymethyl}-6-methylbenzoic Acid] | 0.6 nM |
| COc1cccc(-c2nc(COC3CCCC(OCc4cccc(C)c4C(=O)O)C3)c(C)o2)c1 (centres unmarked) [XXXIV, 2-{3-[2-(3-Methoxyphenyl)-5-methyloxazol4-ylmethoxy]cyclohexyloxymethyl}-6-methylbenzoic Acid] | 0.82 nM |
| Cc1cccc(COC2CCCC(OCc3nc(-c4cccc(Cl)c4)oc3C)C2)c1C(=O)O (centres unmarked) [XXXVI, 2-{3-[2-(3-Chlorophenyl)-5-methyloxazol4-ylmethoxy]cyclohexyloxymethyl}-6-methylbenzoic Acid] | 0.62 nM |
| Cc1cccc(-c2nc(COC3CCCC(OCc4cccc(C)c4C(=O)O)C3)c(C)o2)c1 (centres unmarked) [XXXVIII, 2-{3-[2-(3-Methylphenyl)-5-methyloxazol-4-ylmethoxy]cyclohexyloxymethyl}-6-methylbenzoic Acid] | 0.57 nM |

More lines, in order of falling EC50, values ahead:

| EC50 | Compound |
| --- | --- |
| 32 nM | Cc1cccc(CC[C@H]2CCC[C@H](OCc3coc(-c4ccc(F)cc4)n3)C2)c1C(=O)O (racemic) [XXIX, Rac-trans-2-(2-{3-[2-(4-Fluorophenyl)oxazol4-ylmethoxy]cyclohexyl}ethyl)-6-methylbenzoic Acid] |
| 13 nM | Cc1cccc(COC[C@H]2CCC[C@@H](OCc3coc(-c4ccc(F)cc4)n3)C2)c1C(=O)O (racemic) [XXV, Rac-cis-2-{3-[2-(4-Fluorophenyl)oxazol4-ylmethoxy]cyclohexylmethoxymethyl}-6-methylbenzoic Acid] |
| 0.97 nM | Cc1cccc(COC2CCCC(OCc3nc(-c4cccc(Br)c4)oc3C)C2)c1C(=O)O (centres unmarked) [XXXII] |
| 0.93 nM | Cc1cccc(COC2CCCC(OCc3nc(-c4cccc(C#N)c4)oc3C)C2)c1C(=O)O (centres unmarked) [XLIV, 2-{3-[2-(3-Cyanophenyl)-5-methyloxazol-4-ylmethoxy]cyclohexyloxymethyl}-6-methylbenzoic Acid] |
| 0.58 nM | COc1ccc(-c2nc(COC3CCCC(OCc4cccc(C)c4C(=O)O)C3)c(C)o2)cc1OC (centres unmarked) [XLIII, 2-{3-[2-(3,4-Dimethoxyphenyl)-5-methyloxazol-4-ylmethoxy]cyclohexyloxymethyl}-6-methylbenzoic Acid] |
